Experimental data taken from PubChem BioAssay AID258 (DTP/NCI, 2004).
Several values for one entry are separate records, joined by “and”; a condition that tells them apart may be missing. Equal entries are not always repeated. Toxic doses and inconclusive results are not listed.

Test system: CD2F1 mice, L1210 leukemia sc, survival T/C
Assay: NCI In Vivo Anticancer Drug Screen. Data for tumor model L1210 Leukemia (subcutaneous) in CD2F1 (CDF1) mice
Conditions: endpoint: median survival time, higher = longer survival
Outline: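 Antitumor activity is scored in tumor-bearing mice by comparing survival or tumor size of treated animals against vehicle-treated controls, reported as T/C.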

Compound: O=C1c2ccccc2C(=O)c2c(NCCNCCO)ccc(NCCNCCO)c21
- T/C (dose: 0.5 mg/kg/injection, schedule: Q01DX009 (ip), vehicle: saline with Tween-80): 97 % of control
- T/C (dose: 0.5 mg/kg/injection, schedule: Q01DX009 (ip), vehicle: saline): 97 % of control
- T/C (dose: 1.0 mg/kg/injection, schedule: Q01DX009 (ip), vehicle: saline with Tween-80): 98 % of control
- T/C (dose: 1.0 mg/kg/injection, schedule: Q01DX009 (ip), vehicle: saline): 102 % of control and 106 % of control and 86 % of control
- T/C (dose: 2.0 mg/kg/injection, schedule: Q01DX009 (ip), vehicle: saline with Tween-80): 101 % of control
- T/C (dose: 2.0 mg/kg/injection, schedule: Q01DX009 (ip), vehicle: saline): 102 % of control and 108 % of control
- T/C (dose: 4.0 mg/kg/injection, schedule: Q01DX009 (ip), vehicle: Klucel (hydroxypropylcellulose) (HPC)): 98 % of control
- T/C (dose: 4.0 mg/kg/injection, schedule: Q01DX009 (ip), vehicle: saline): 105 % of control and 97 % of control
- T/C (dose: 4.0 mg/kg/injection, schedule: Q01DX009 (ip), vehicle: water): 101 % of control
- T/C (dose: 4.0 mg/kg/injection, schedule: Q01DX009 (oral), vehicle: saline): 94 % of control
- T/C (dose: 4.0 mg/kg/injection, schedule: Q01DX009 (sc), vehicle: Klucel (hydroxypropylcellulose) (HPC)): 114 % of control and 124 % of control
- T/C (dose: 8.0 mg/kg/injection, schedule: Q01DX005 (oral), vehicle: Klucel (hydroxypropylcellulose) (HPC)): 99 % of control
- T/C (dose: 8.0 mg/kg/injection, schedule: Q01DX005 (oral), vehicle: water): 96 % of control
- T/C (dose: 8.0 mg/kg/injection, schedule: Q01DX009 (ip), vehicle: Klucel (hydroxypropylcellulose) (HPC)): 122 % of control and 112 % of control
- T/C (dose: 8.0 mg/kg/injection, schedule: Q01DX009 (ip), vehicle: saline): 93 % of control
- T/C (dose: 8.0 mg/kg/injection, schedule: Q01DX009 (ip), vehicle: water): 104 % of control
- T/C (dose: 8.0 mg/kg/injection, schedule: Q01DX009 (oral), vehicle: saline): 96 % of control
- T/C (dose: 8.0 mg/kg/injection, schedule: Q01DX009 (sc), vehicle: water): 156 % of control
- T/C (dose: 16.0 mg/kg/injection, schedule: Q01DX005 (oral), vehicle: Klucel (hydroxypropylcellulose) (HPC)): 106 % of control
- T/C (dose: 16.0 mg/kg/injection, schedule: Q01DX005 (oral), vehicle: water): 96 % of control
- T/C (dose: 16.0 mg/kg/injection, schedule: Q01DX009 (ip), vehicle: Klucel (hydroxypropylcellulose) (HPC)): 108 % of control
- T/C (dose: 16.0 mg/kg/injection, schedule: Q01DX009 (ip), vehicle: water): 102 % of control
- T/C (dose: 16.0 mg/kg/injection, schedule: Q01DX009 (oral), vehicle: saline): 96 % of control
- T/C (dose: 16.0 mg/kg/injection, schedule: Q01DX009 (sc), vehicle: Klucel (hydroxypropylcellulose) (HPC)): 177 % of control and 122 % of control and 243 % of control
- T/C (dose: 16.0 mg/kg/injection, schedule: Q01DX009 (sc), vehicle: water): 578 % of control
- T/C (dose: 32.0 mg/kg/injection, schedule: Q01DX005 (oral), vehicle: Klucel (hydroxypropylcellulose) (HPC)): 103 % of control
- T/C (dose: 32.0 mg/kg/injection, schedule: Q01DX005 (oral), vehicle: water): 99 % of control
- T/C (dose: 32.0 mg/kg/injection, schedule: Q01DX009 (ip), vehicle: Klucel (hydroxypropylcellulose) (HPC)): 120 % of control and 119 % of control
- T/C (dose: 32.0 mg/kg/injection, schedule: Q01DX009 (ip), vehicle: saline): 104 % of control
- T/C (dose: 32.0 mg/kg/injection, schedule: Q01DX009 (ip), vehicle: water): 111 % of control
- T/C (dose: 32.0 mg/kg/injection, schedule: Q01DX009 (oral), vehicle: saline): 94 % of control
- T/C (dose: 32.0 mg/kg/injection, schedule: Q01DX009 (sc), vehicle: Klucel (hydroxypropylcellulose) (HPC)): 200 % of control and 225 % of control
- T/C (dose: 32.0 mg/kg/injection, schedule: Q01DX009 (sc), vehicle: water): 243 % of control
- T/C (dose: 64.0 mg/kg/injection, schedule: Q01DX005 (oral), vehicle: Klucel (hydroxypropylcellulose) (HPC)): 93 % of control
- T/C (dose: 64.0 mg/kg/injection, schedule: Q01DX005 (oral), vehicle: water): 103 % of control
- T/C (dose: 64.0 mg/kg/injection, schedule: Q01DX009 (ip), vehicle: saline): 108 % of control and 89 % of control
- T/C (dose: 64.0 mg/kg/injection, schedule: Q01DX009 (oral), vehicle: saline): 97 % of control
- T/C (dose: 64.0 mg/kg/injection, schedule: Q01DX009 (sc), vehicle: Klucel (hydroxypropylcellulose) (HPC)): 92 % of control
- T/C (dose: 128.0 mg/kg/injection, schedule: Q01DX005 (oral), vehicle: Klucel (hydroxypropylcellulose) (HPC)): 97 % of control
- T/C (dose: 128.0 mg/kg/injection, schedule: Q01DX005 (oral), vehicle: water): 99 % of control
- T/C (dose: 128.0 mg/kg/injection, schedule: Q01DX009 (ip), vehicle: Klucel (hydroxypropylcellulose) (HPC)): 122 % of control
- T/C (dose: 128.0 mg/kg/injection, schedule: Q01DX009 (ip), vehicle: saline): 101 % of control
- T/C (dose: 128.0 mg/kg/injection, schedule: Q01DX009 (ip), vehicle: water): 114 % of control
- T/C (dose: 128.0 mg/kg/injection, schedule: Q01DX009 (oral), vehicle: saline): 102 % of control
- T/C (dose: 128.0 mg/kg/injection, schedule: Q01DX009 (sc), vehicle: Klucel (hydroxypropylcellulose) (HPC)): 211 % of control
- T/C (dose: 256.0 mg/kg/injection, schedule: Q01DX005 (oral), vehicle: Klucel (hydroxypropylcellulose) (HPC)): 98 % of control
- T/C (dose: 256.0 mg/kg/injection, schedule: Q01DX009 (oral), vehicle: saline): 101 % of control
- T/C (dose: 512.0 mg/kg/injection, schedule: Q01DX009 (oral), vehicle: saline): 93 % of control

Compound: CS(=O)(=O)OCCCCOS(C)(=O)=O
- T/C (dose: 8.4 mg/kg/injection, schedule: Q01DX Z (sc), vehicle: methylcellulose (MC)): 100 % of control
- T/C (dose: 14.0 mg/kg/injection, schedule: Q01DX Z (sc), vehicle: methylcellulose (MC)): 100 % of control
- T/C (dose: 23.0 mg/kg/injection, schedule: Q01DX Z (sc), vehicle: methylcellulose (MC)): 100 % of control
- T/C (dose: 39.0 mg/kg/injection, schedule: Q01DX Z (sc), vehicle: methylcellulose (MC)): 100 % of control
- T/C (dose: 65.0 mg/kg/injection, schedule: Q01DX Z (sc), vehicle: methylcellulose (MC)): 100 % of control
- T/C (dose: 108.0 mg/kg/injection, schedule: Q01DX Z (sc), vehicle: methylcellulose (MC)): 100 % of control

Compound: O=C(Nc1ccccc1)c1c(O)[nH]c(=S)[nH]c1=O
- T/C (dose: 5.6 mg/kg/injection, schedule: Q03HX008 (ip), vehicle: other): 107 % of control and 96 % of control
- T/C (dose: 5.9 mg/kg/injection, schedule: Q04HX006 (iv), vehicle: other): 110 % of control
- T/C (dose: 8.4 mg/kg/injection, schedule: Q03HX008 (ip), vehicle: other): 107 % of control
- T/C (dose: 8.9 mg/kg/injection, schedule: Q01DX003 (iv), vehicle: other): 105 % of control
- T/C (dose: 8.9 mg/kg/injection, schedule: Q04HX006 (iv), vehicle: other): 109 % of control
- T/C (dose: 12.6 mg/kg/injection, schedule: Q03HX008 (ip), vehicle: other): 104 % of control and 111 % of control
- T/C (dose: 13.4 mg/kg/injection, schedule: Q01DX003 (iv), vehicle: other): 101 % of control
- T/C (dose: 13.4 mg/kg/injection, schedule: Q01DX005 (ip), vehicle: other): 100 % of control and 103 % of control
- T/C (dose: 13.4 mg/kg/injection, schedule: Q04HX006 (iv), vehicle: other): 113 % of control
- T/C (dose: 18.8 mg/kg/injection, schedule: Q03HX008 (ip), vehicle: other): 122 % of control
- T/C (dose: 20.0 mg/kg/injection, schedule: Q01DX003 (iv), vehicle: other): 107 % of control
- T/C (dose: 20.0 mg/kg/injection, schedule: Q01DX005 (ip), vehicle: other): 106 % of control and 115 % of control
- T/C (dose: 20.0 mg/kg/injection, schedule: Q04HX006 (iv), vehicle: other): 119 % of control
- T/C (dose: 28.2 mg/kg/injection, schedule: Q03HX008 (ip), vehicle: other): 157 % of control and 163 % of control
- T/C (dose: 29.8 mg/kg/injection, schedule: Q01DX001 (ip), vehicle: other): 105 % of control and 107 % of control
- T/C (dose: 30.0 mg/kg/injection, schedule: Q01DX003 (iv), vehicle: other): 124 % of control
- T/C (dose: 30.0 mg/kg/injection, schedule: Q04HX006 (iv), vehicle: other): 168 % of control
- T/C (dose: 44.7 mg/kg/injection, schedule: Q01DX001 (ip), vehicle: other): 117 % of control and 119 % of control
- T/C (dose: 45.0 mg/kg/injection, schedule: Q01DX003 (iv), vehicle: other): 161 % of control
- T/C (dose: 45.0 mg/kg/injection, schedule: Q01DX005 (ip), vehicle: other): 173 % of control and 184 % of control
